Measurements published in patent US20130030017A1, “QUINOLINE DERIVATIVES AS ANTIBACTERIAL AGENTS” (priority 2005, published 2013).
≈ marks a conversion by molar mass, not a printed value.

Key:
[1] = test system: Staphylococcus aureus (ATCC29213); assay: Microtitre plate assay, IC90 determination (STA 29213); format: cell-based; conditions: 90% inhibitory concentration for bacterial growth, 37° C., resazurin fluorescence; for IC90 STA 29213: 24 hours; for IC90: Staphylococcus aureus, ATCC29213, 24 h
Description: (§1) The bacteria used in this study were grown overnight in flasks containing 100 ml Mueller-Hinton Broth (Becton Dickinson—cat. no. 275730) in sterile de-ionized water, with shaking, at 37° C. Stocks (0.5 ml/tube) were stored at −70° C. until use. Bacteria titrations were performed in microtiter plates and colony forming units (CFUs) were determined. In general, an inoculum level of approximately 100 CFUs was used for susceptibility testing.
(§2) Flat-bottom, sterile 96-well plastic microtiter plates were filled with 180 μl of sterile deionized water, supplemented with 0.25% BSA. Subsequently, stock solutions (7.8× final test concentration) of compounds were added in 45 μl volumes in column 2 Serial five-fold dilutions (45 μl in 180 μl) were made directly in the microtiter plates from column 2 to reach column 11. Untreated control samples with (column 1) and without (column 12) inoculum were included in each microtiter plate. Depending on the bacteria type, approximately 10 to 60 CFU per well of bacteria inoculum (100 TCID50), in a volume of 100 μl in 2.8× Mueller-Hinton broth medium, was added to the rows A to H, except column 12. The same volume of broth medium without inoculum was added to column 12 in row A to H. The cultures were incubated at 37° C. for 24 hours under a normal atmosphere (incubator with open air valve and continuous ventilation). At the end of incubation, one day after inoculation, the bacterial growth was quantitated fluorometrically. Therefore resazurin (0.6 mg/ml) was added in a volume of 20 μl to all wells 3 hours after inoculation, and the plates were re-incubated overnight. A change in colour from blue to pink indicated the growth of bacteria. The fluorescence was read in a computer-controlled fluorometer (Cytofluor Biosearch) at an excitation wavelength of 530 nm and an emission wavelength of 590 nm. The % growth inhibition achieved by the compounds was calculated according to standard methods. The IC90 (expressed in μg/ml) was defined as the 90% inhibitory concentration for bacterial growth.

[2] = test system: Streptococcus pyogens (ATCC8668); assay: Microtitre plate assay, IC90 determination (SPY 8668); format: cell-based; conditions: 90% inhibitory concentration for bacterial growth, 37° C., resazurin fluorescence; for IC90: Streptococcus, ATCC8668, 24 h; for IC90 SPY 8668: 24 hours
Description: as §1, §2

[3] = test system: Enterococcus faecalis (ATCC29212); assay: Microtitre plate assay, IC90 determination (EFA 29212); format: cell-based; conditions: 90% inhibitory concentration for bacterial growth, 37° C., resazurin fluorescence; for IC90 EFA 29212: 24 hours
Description: as §1, §2

[4] = test system: Pseudomonas aeruginosa (ATCC27853); assay: Microtitre plate assay, IC90 determination (PAE 27853); format: cell-based; conditions: 90% inhibitory concentration for bacterial growth, 37° C., resazurin fluorescence; for IC90 PAE 27853: 24 hours
Description: as §1, §2

[5] = test system: Streptococcus pneumoniae (ATCC6305); assay: Microtitre plate assay, IC90 determination (SPN 6305); format: cell-based; conditions: 90% inhibitory concentration for bacterial growth, 37° C., resazurin fluorescence; for IC90: Streptococcus pneumoniae, ATCC6305, 24 h; for IC90 SPN 6305: 24 hours
Description: as §1, §2

[6] = test system: methicilline resistant Staphylococcus aureus (MRSA) (a clinical isolate from the University of Antwerp); assay: Microtitre plate assay, IC90 determination (STA RMETH); format: cell-based; conditions: 90% inhibitory concentration for bacterial growth, 37° C., 24 hours, resazurin fluorescence
Description: as §1, §2

[7] = test system: Listeria monocytogenes (ATCC49594); assay: Microtitre plate assay, IC90 determination (LMO 49594); format: cell-based; conditions: 90% inhibitory concentration for bacterial growth, 37° C., 24 hours, resazurin fluorescence
Description: as §1, §2

[8] = test system: Bacillus subtilis (ATCC43639); assay: Microtitre plate assay, IC90 determination (BSU 43639); format: cell-based; conditions: 90% inhibitory concentration for bacterial growth, 37° C., 24 hours, resazurin fluorescence
Description: as §1, §2

[9] = test system: Staphylococcus aureus (ATCC25923); assay: Microtitre plate assay, IC90 determination (STA 25923); format: cell-based; conditions: 90% inhibitory concentration for bacterial growth, 37° C., 24 hours, resazurin fluorescence
Description: as §1
Flat-bottom, sterile 96-well plastic microtiter plates were filled with 180 μl of sterile deionized water, supplemented with 0.25% BSA. Subsequently, stock solutions (7.8× final test concentration) of compounds were added in 45 μl volumes in column 2 Serial five-fold dilutions (45 μl in 180 μl) were made directly in the microtiter plates from column 2 to reach column 11. Untreated control samples with (column 1) and without (column 12) inoculum were included in each microtiter plate. […] At the end of incubation, one day after inoculation, the bacterial growth was quantitated fluorometrically. […] The fluorescence was read in a computer-controlled fluorometer (Cytofluor Biosearch) at an excitation wavelength of 530 nm and an emission wavelength of 590 nm. The % growth inhibition achieved by the compounds was calculated according to standard methods. […]

IC90 STA 29213 [1]	IC90 EFA 29212 [3]	IC90 PAE 27853 [4]	IC90 SPY 8668 [2]	IC90 SPN 6305 [5]	melting point	Compound	IC90 [6]	IC90 STA RMETH [6]	further results
3.9 µg/mL (≈ 7.12 µM)	1.7 µg/mL (≈ 3.1 µM)	1.7 µg/mL (≈ 3.1 µM)				COc1nc2ccc(Br)cc2cc1C(c1ccc(C)cc1)C(O)(CCc1ccccc1)CCN(C)C (stereo not shown) [Compound 65]	10.9 µg/mL (≈ 19.9 µM)		IC90 [2]: 1.7 µg/mL (≈ 3.1 µM); IC90 [5]: 0.8 µg/mL (≈ 1.46 µM)
1.8 µg/mL (≈ 3.19 µM)	1.8 µg/mL (≈ 3.19 µM)	1.8 µg/mL (≈ 3.19 µM)	1.8 µg/mL (≈ 3.19 µM)	1.8 µg/mL (≈ 3.19 µM)		COc1ccc(C(c2cc3cc(Br)ccc3nc2OC)C(O)(CCc2ccccc2)CCN(C)C)cc1 (stereo not shown) [Compound 74]	12.6 µg/mL (≈ 22.4 µM)		
1.9 µg/mL (≈ 3.18 µM)	1.9 µg/mL (≈ 3.18 µM)	1.9 µg/mL (≈ 3.18 µM)	1.9 µg/mL (≈ 3.18 µM)	2.1 µg/mL (≈ 3.51 µM)	142 °C	COc1ccc(CCC(O)(CCN(C)C)C(c2ccc(Cl)cc2)c2cc3cc(Br)ccc3nc2OC)cc1 (stereo not shown) [Compound 21]			
59.2 µg/mL (≈ 100 µM)				9.4 µg/mL (≈ 15.9 µM)	194 °C	COc1nc2ccc(Br)cc2cc1C(c1ccccc1)C(O)(CCc1ccc(F)cc1)CCN1CCCCC1 (stereo not shown) [Compound 34]			
8.5 µg/mL (≈ 15.9 µM)				1.7 µg/mL (≈ 3.19 µM)	126 °C	COc1nc2cccc(Br)c2cc1C(c1ccccc1)C(O)(CCc1ccccc1)CCN(C)C (stereo not shown) [Compound 6]			
1.9 µg/mL (≈ 3.26 µM)				11.6 µg/mL (≈ 19.9 µM)	160 °C	COc1nc2ccc(Br)cc2cc1C(c1ccccc1)C(O)(CCc1cccc2ccccc12)CCN(C)C (stereo not shown) [Compound 8]	1.9 µg/mL (≈ 3.26 µM)		IC90 [2]: 1.9 µg/mL (≈ 3.26 µM); IC90 [7]: 1.9 µg/mL (≈ 3.26 µM); IC90 ([3]; Enterococcus faecalis, ATCC29212, 24 h): 1.9 µg/mL (≈ 3.26 µM); IC90 ([4]; Pseudomonas aeruginosa, ATCC27853, 24 h): 2.3 µg/mL (≈ 3.94 µM)
1.8 µg/mL (≈ 3.17 µM)	56.8 µg/mL (≈ 100 µM)	45.1 µg/mL (≈ 79.4 µM)	45.1 µg/mL (≈ 79.4 µM)	1.8 µg/mL (≈ 3.17 µM)		COc1nc2ccc(Br)cc2cc1C(c1ccc(Cl)cc1)C(O)(CCc1ccccc1)CCN(C)C (stereo not shown) [Compound 70]		12.7 µg/mL (≈ 22.4 µM)	
	1.8 µg/mL (≈ 3.17 µM)	1.8 µg/mL (≈ 3.17 µM)	4.0 µg/mL (≈ 7.04 µM)	0.5 µg/mL (≈ 0.88 µM)		COc1nc2ccc(Br)cc2cc1C(c1ccc(Cl)cc1)C(O)(CCc1ccccc1)CCN(C)C (stereo not shown) [Compound 69]	12.7 µg/mL (≈ 22.4 µM)		IC90 [1]: 1.8 µg/mL (≈ 3.17 µM)
9.3 µg/mL (≈ 15.9 µM)				2.1 µg/mL (≈ 3.6 µM)	222 °C	CSc1nc2ccc(Br)cc2cc1C(c1ccc(Cl)cc1)C(O)(CCc1ccccc1)CCN(C)C (stereo not shown) [Compound 32]			
					134 °C	CNCCC(O)(CCc1ccc(F)cc1)C(c1ccccc1)c1cc2ccccc2nc1OC (stereo not shown) [Compound 37]			IC90 [1]: 2.9 µg/mL (≈ 6.32 µM); IC90 [5]: 0.3 µg/mL (≈ 0.654 µM)

Compound	IC90 STA 29213 [1]	IC90 EFA 29212 [3]	IC90 PAE 27853 [4]	IC90 SPY 8668 [2]	IC90 SPN 6305 [5]	melting point	IC90 [6]	IC90 STA RMETH [6]	further results
COc1nc2ccc(Br)cc2cc1C(c1ccccc1)C(O)(CCc1ccccc1)CCN(C)C (racemic) [Compound 15]	4.8 µg/mL (≈ 9 µM)	4.8 µg/mL (≈ 9 µM)	4.8 µg/mL (≈ 9 µM)	4.2 µg/mL (≈ 7.87 µM)	7.5 µg/mL (≈ 14.1 µM)			10.6 µg/mL (≈ 19.9 µM)	IC90 LMO 49594 [7]: 2.1 µg/mL (≈ 3.94 µM); IC90 BSU 43639 [8]: 10.6 µg/mL (≈ 19.9 µM); IC90 STA 25923 [9]: 4.8 µg/mL (≈ 9 µM)
COc1nc2ccc(Br)cc2cc1C(c1ccccc1)C(O)(CCc1ccc(C)cc1)CCN(C)C (racemic) [Compound 53]	1.7 µg/mL (≈ 3.1 µM)	6.9 µg/mL (≈ 12.6 µM)	3.9 µg/mL (≈ 7.12 µM)	1.7 µg/mL (≈ 3.1 µM)	1.7 µg/mL (≈ 3.1 µM)			13.8 µg/mL (≈ 25.2 µM)	
COc1nc2ccc(Br)cc2cc1C(c1ccccc1)C(O)(CCc1ccc(F)cc1)CCN(C)C (racemic) [Compound 50]	1.7 µg/mL (≈ 3.08 µM)	1.7 µg/mL (≈ 3.08 µM)	1.7 µg/mL (≈ 3.08 µM)	1.7 µg/mL (≈ 3.08 µM)	0.4 µg/mL (≈ 0.725 µM)			8.7 µg/mL (≈ 15.8 µM)	IC90 LMO 49594 [7]: 8.7 µg/mL (≈ 15.8 µM); IC90 BSU 43639 [8]: 9.8 µg/mL (≈ 17.8 µM)
